Several values for one entry are separate records, joined by “and”; a condition that tells them apart may be missing. Equal entries are not always repeated. Where two headings read alike, the source gives them in different places.
Experiments:
SMARCA2 = SMARCA2 (Homo sapiens, UniProt P51531); experiment: SMARCA2 IHC in NCI-H1568 xenograft tumours; type: in vivo, mouse; set-up: from tissue; host or cells: subcutaneous NCI-H1568 or A549 xenograft tumours in BomTac:NMRI-Foxn1nu mice; settings: individual tumours; for SMARCA2 (OD, normalised): background OD 0.03518 subtracted
Method: To establish subcutaneous tumours, mice were injected with 5 × 10^6 NCI-H1568 in PBS with 5% FCS or with 1 × 10^7 A549 cells in PBS with 5% FCS. Tumour diameters were measured with a caliper three times a week. The volume of each tumour (in mm^3) was calculated according to the formula [tumour volume = length × diameter^2 × π/6]. To monitor side effects of treatment, mice were inspected daily for abnormalities and body weight was determined daily after the start of treatment. Animals were sacrificed when the tumours reached a size of 1500 mm^3. Mice were randomised into treatment groups when the average tumour size reached ~210–220 mm^3. Group sizes were calculated individually for each tumour model based on tumour growth during model establishment experiments. A power analysis was performed using a sample size calculator (https://www.stat.ubc.ca/~rollin/stats/ssize/n2.html). For both models used in the study, 10 mice per group were used for each experiment. All administrations were dosed with 10 ml/kg (s.c. and oral). Control mice were dosed subcutaneously with 10% HP-β-CD in 50% Ringer solution and orally with 15% HP-β-CD, that means the control mouse treatment was corresponding to the solvent of the compounds. Compound 6 was dosed subcutaneously either in a d1-4 q3d, d6-8 q2d, d11-13 q2d treatment (Treatment 1) or a q3 or 4d treatment (Treatment 2).
Xenograft samples were fixed in 10% formaldehyde for 24 h and later moved to ethanol and embedded in paraffin. 2 µm-thick sections were cut using a microtome, then placed on glass slides ([…], silan printer slides PR-S:001), and subsequently dewaxed. SMARCA2 immunohistochemistry was carried out on the Leica BOND RX platform (Leica Biosystems) according to manufacturer’s instructions using a human-specific SMARCA2 antibody (Cell Signalling #11966 clone D9E8B RRID:AB_2797783 1:400) where the tissue underwent a heat-induced epitope retrieval for 20 min. After staining, the slides were cover-slipped with Shandon Consul-Mount glass covers, scanned using a slide scanner (3D HISTECH Ltd.). All slides were reviewed and evaluated for quality by a board-certified MD specialist in Anatomic Pathology (PC). Imaging analysis was performed using the digital pathology platform HALO (Indica Labs). A tissue-classifying algorithm was trained to selectively recognise viable tumour tissue against stroma, necrosis, and skin. The tissue classification output for each scan was reviewed and manually edited as necessary. A cell detection and scoring algorithm was trained to measure DAB optical density (OD) in the nuclei of tumour cells. A positivity threshold for DAB OD was determined by normalisation with respect to the DAB OD as calculated from bona fide negative tissue (e.g. murine stroma as background). The average, background-normalised DAB OD of tumour cell nuclei was used to quantitate SMARCA2 expression in each xenograft sample.

[1] = Pharmacokinetic analyses in mouse; type: in vivo; settings: for AUC(0-t): read-out: AUC0-24h; for AUC(0-inf): read-out: AUC0-inf
Method: Compound concentrations in plasma aliquots were measured by quantitative HPLC-MS/MS using an internal standard. Calibration and quality control samples were prepared using blank plasma from untreated animals. Samples were precipitated with acetonitrile and injected into a HPLC system (Agilent 1200). Separation was performed by gradients of 5 mmol/L ammonium acetate pH 4.0 and acetonitrile with 0.1% formic acid on a 2.1 mm by 50 mm XBridge BEH C18 reversed-phase column with 2.5 µm particles (Waters). The HPLC was interfaced by ESI operated in positive ionisation mode to a triple quadrupole mass spectrometer (5000 or 6500+ Triple Quad System, SCIEX) operated in multiple reaction monitoring mode. Transitions were 532.4 to 432.8 m/z for BI01810284, 525.6 to 425.7 m/z for BI01802983 and 1021.6 to 624.2 m/z for BI01580883. Chromatograms were analyzed with Analyst (SCIEX) and pharmacokinetic parameters were calculated by non-compartmental analysis using BI-proprietary software.

[2] = 5 mg/kg i.v., individual animals
[3] = 30 mg/kg p.o., individual animals
[4] = NMRI, mouse, plasma, iv, 5 mg/kg, NMRI mice, i.v., 5 mg/kg, PK study
[5] = NMRI, mouse, plasma, po, 30 mg/kg, NMRI mice, p.o., 30 mg/kg, PK study
[6] = mouse, 5 mg/kg i.v., NCA, individual animals, 5 mg/kg

Sequence of SMARCA2 (P51531 whole entry): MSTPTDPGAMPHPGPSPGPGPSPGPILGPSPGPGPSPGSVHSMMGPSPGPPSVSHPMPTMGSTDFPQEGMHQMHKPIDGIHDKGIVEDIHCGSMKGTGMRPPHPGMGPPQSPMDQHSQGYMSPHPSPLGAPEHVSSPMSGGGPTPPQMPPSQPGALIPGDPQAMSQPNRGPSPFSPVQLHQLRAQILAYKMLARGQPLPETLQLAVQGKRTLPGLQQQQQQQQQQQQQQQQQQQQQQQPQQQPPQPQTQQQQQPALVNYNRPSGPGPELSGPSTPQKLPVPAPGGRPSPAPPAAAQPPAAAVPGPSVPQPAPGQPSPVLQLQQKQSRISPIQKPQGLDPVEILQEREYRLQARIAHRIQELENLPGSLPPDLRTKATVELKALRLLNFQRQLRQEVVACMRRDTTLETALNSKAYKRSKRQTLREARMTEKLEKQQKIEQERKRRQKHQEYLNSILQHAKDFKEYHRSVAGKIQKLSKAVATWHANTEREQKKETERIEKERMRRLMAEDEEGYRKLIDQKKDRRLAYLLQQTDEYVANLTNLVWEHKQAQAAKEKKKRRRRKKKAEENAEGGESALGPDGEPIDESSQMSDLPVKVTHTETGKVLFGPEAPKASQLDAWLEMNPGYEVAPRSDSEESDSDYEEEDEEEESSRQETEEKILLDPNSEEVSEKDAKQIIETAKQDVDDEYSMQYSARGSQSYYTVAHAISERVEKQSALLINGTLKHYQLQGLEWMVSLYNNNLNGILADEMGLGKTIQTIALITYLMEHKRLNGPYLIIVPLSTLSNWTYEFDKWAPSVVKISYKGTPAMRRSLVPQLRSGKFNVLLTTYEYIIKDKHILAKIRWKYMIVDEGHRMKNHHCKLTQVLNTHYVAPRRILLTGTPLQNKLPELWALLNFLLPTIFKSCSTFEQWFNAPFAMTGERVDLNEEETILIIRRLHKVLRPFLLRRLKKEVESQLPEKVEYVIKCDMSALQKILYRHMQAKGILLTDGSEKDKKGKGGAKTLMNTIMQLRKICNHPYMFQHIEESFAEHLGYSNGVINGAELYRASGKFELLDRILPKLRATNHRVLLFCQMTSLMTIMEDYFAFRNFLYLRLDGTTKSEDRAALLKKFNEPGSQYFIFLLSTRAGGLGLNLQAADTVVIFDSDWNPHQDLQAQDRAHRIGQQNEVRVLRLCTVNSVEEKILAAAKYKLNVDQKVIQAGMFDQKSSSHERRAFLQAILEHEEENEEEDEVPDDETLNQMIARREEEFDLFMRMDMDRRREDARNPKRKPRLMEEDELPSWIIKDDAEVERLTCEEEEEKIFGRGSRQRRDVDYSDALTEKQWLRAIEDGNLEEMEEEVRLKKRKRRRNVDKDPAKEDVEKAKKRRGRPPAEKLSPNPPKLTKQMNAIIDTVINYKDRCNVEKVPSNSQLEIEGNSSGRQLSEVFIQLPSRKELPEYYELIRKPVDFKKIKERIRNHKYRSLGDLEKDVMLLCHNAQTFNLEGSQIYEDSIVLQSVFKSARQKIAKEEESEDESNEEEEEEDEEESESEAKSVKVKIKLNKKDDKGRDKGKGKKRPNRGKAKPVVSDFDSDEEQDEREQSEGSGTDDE

Question: With `Cc1ncsc1-c1ccc(C(CCC(C)CCN2CCC(c3ccc4c(c3)n(C3CCCC3)c3nc(=O)c5c(Br)cccc5n43)CC2)NC(=O)C2CC(O)CN2C(=O)C(NC(=O)C2(F)CC2)C(C)(C)C)cc1` (stereo not shown) [ACBI2] as the molecule, how does the “SMARCA2 (OD, normalised)” value (SMARCA2; 5 mg/kg, 48h) read?
Answer: The value was 0.2432 and 0.2157 and 0.2065 and 0.129 and 0.1815.

Question: What about the “SMARCA2 Nuclear OD” value (SMARCA2; 5 mg/kg, 48h) of the same molecule?
Answer: Its value is 0.2784 and 0.2509 and 0.2416 and 0.1642 and 0.2166.

Question: And the “SMARCA2 (OD, normalised)” value (SMARCA2; 20 mg/kg, 24h)?
Answer: The value was 0.05875 and 0.05583 and 0.06456 and 0.06581.

Question: What about the “SMARCA2 Nuclear OD” value (SMARCA2; 20 mg/kg, 24h) of the same molecule?
Answer: The value was 0.09393 and 0.09101 and 0.09973 and 0.101.

Question: What about the “SMARCA2 (OD, normalised)” value (SMARCA2; 20 mg/kg, 48h) of the same molecule?
Answer: The value was 0.06607 and 0.09312 and 0.06031 and 0.01981.

Question: And the “SMARCA2 Nuclear OD” value (SMARCA2; 20 mg/kg, 48h)?
Answer: The value was 0.1013 and 0.1283 and 0.09549 and 0.05499.

Question: And the “SMARCA2 (OD, normalised)” value (SMARCA2; 100 mg/kg, 48h)?
Answer: Its value is 0.01021 and 0.00729 and 0.00935 and 0.01389 and 0.01189.

Question: And the “SMARCA2 Nuclear OD” value (SMARCA2; 100 mg/kg, 48h)?
Answer: The value was 0.04539 and 0.04246 and 0.04453 and 0.04906 and 0.04706.

Question: And the AUC [1, 2]?
Answer: Its AUC is 41.8 µM·h and 38 µM·h.

Question: What about the AUCinf [1, 2] of the same molecule?
Answer: The AUCinf was 42.3 µM·h and 38.4 µM·h.

Question: What about the Concentration ([1]; 5 mg/kg i.v., time 0.25 h, individual animals) of the same molecule?
Answer: The Concentration was 6800 nM.

Question: And the Concentration ([1]; 5 mg/kg i.v., time 1 h, individual animals)?
Answer: Its Concentration is 5130 nM.

Question: What about the Concentration ([1]; 5 mg/kg i.v., time 6 h, individual animals) of the same molecule?
Answer: The Concentration was 1220 nM.

Question: What about the Concentration ([1]; 5 mg/kg i.v., time 24 h, individual animals) of the same molecule?
Answer: Its Concentration is 94.9 nM.

Question: And the F ([1]; 30 mg/kg p.o. vs 5 mg/kg i.v., individual animals)?
Answer: The F was 23.8% and 20.9%.

Question: And the AUC [1, 3]?
Answer: Its AUC is 53.9 µM·h and 47.2 µM·h.

Question: What about the AUCinf [1, 3] of the same molecule?
Answer: The AUCinf was 55 µM·h and 48.3 µM·h.

Question: What about the MRT ([1]; NMRI, mouse, plasma, iv, 5 mg/kg, NMRI mice, PK study) of the same molecule?
Answer: The MRT was 3.8 h.

Question: What about the AUC(0-t) [1, 4] of the same molecule?
Answer: Its AUC(0-t) is 38 µM·h.

Question: What about the AUC(0-inf) [1, 4] of the same molecule?
Answer: Its AUC(0-inf) is 38 µM·h.

Question: And the clearance ([1]; NMRI, mouse, plasma, iv, 5 mg/kg, NMRI mice, i.v., 5 mg/kg, PK study, read-out: Clearance)?
Answer: Its clearance is 2 mL/min/kg.

Question: What about the Vd ([1]; NMRI, mouse, plasma, iv, 5 mg/kg, NMRI mice, i.v., 5 mg/kg, PK study, read-out: Vss) of the same molecule?
Answer: Its Vd is 0.47 L/kg.

Question: And the MRT ([1]; NMRI, mouse, plasma, po, 30 mg/kg, NMRI mice, PK study)?
Answer: Its MRT is 6.1 h.

Question: And the AUC(0-t) [1, 5]?
Answer: Its AUC(0-t) is 50 µM·h.

Question: And the AUC(0-inf) [1, 5]?
Answer: Its AUC(0-inf) is 51 µM·h.

Question: And the bioavailability ([1]; NMRI, mouse, plasma, po, 30 mg/kg, NMRI mice, p.o., 30 mg/kg, PK study, read-out: Bioavailability)?
Answer: The bioavailability was 22%.

Question: And the AUC(0-t) ([1]; NMRI, mouse, plasma, po, 80 mg/kg, NMRI mice, p.o., 80 mg/kg, Xenograft study)?
Answer: Its AUC(0-t) is 84 µM·h.

Question: And the Plasma concentration ([1]; mouse, 5 mg/kg i.v., 0.25 h, individual animals, 5 mg/kg)?
Answer: Its Plasma concentration is 7530 nM and 7360 nM.

Question: And the Plasma concentration ([1]; mouse, 5 mg/kg i.v., 1 h, individual animals, 5 mg/kg)?
Answer: The Plasma concentration was 6000 nM and 5660 nM.

Question: What about the Plasma concentration ([1]; mouse, 5 mg/kg i.v., 6 h, individual animals, 5 mg/kg) of the same molecule?
Answer: The Plasma concentration was 1620 nM and 1380 nM.

Question: What about the Plasma concentration ([1]; mouse, 5 mg/kg i.v., 24 h, individual animals, 5 mg/kg) of the same molecule?
Answer: The Plasma concentration was 85.5 nM and 74.3 nM.

Question: And the AUC [1, 6]?
Answer: The AUC was 41.8 µM·h and 38 µM·h.

Question: And the AUCinf [1, 6]?
Answer: The AUCinf was 42.3 µM·h and 38.4 µM·h.

Question: What about the CL [1, 6] of the same molecule?
Answer: Its CL is 1.85 mL/min/kg and 2.04 mL/min/kg.

Question: And the Vss [1, 6]?
Answer: Its Vss is 0.426 L/kg and 0.449 L/kg.

Question: What about the Plasma concentration ([1]; mouse, 30 mg/kg p.o., 0.333 h, individual animals, 30 mg/kg) of the same molecule?
Answer: The Plasma concentration was 968 nM and 1530 nM.

Question: And the Plasma concentration ([1]; mouse, 30 mg/kg p.o., 1 h, individual animals, 30 mg/kg)?
Answer: Its Plasma concentration is 4180 nM and 4160 nM.
